This is an account of results in ChEMBL document CHEMBL3400008, “Potent and selective Bruton's tyrosine kinase inhibitors: discovery of GDC-0834” (Bioorg Med Chem Lett, 2015).

The structures appear in SMILES notation. ≈ marks a conversion by molar mass, not a printed value. Where only a bound is given, the exact number is not on record here.

In general, clearance refers to a measure of how efficiently the substance is removed, as volume per time. What is called bioavailability is the share of a dose that reaches the circulation, judged against a reference dose that is usually intravenous. By IC50 is commonly meant the concentration that inhibits the measured activity by half. Usually inhibition stands for the change of the read-out against control, counted positive when it falls. Usually solubility stands for the dissolved amount per volume that the medium holds.

A short description of data set [1]: Clearance in rat. It is filed as ADME, organism-based. As to conditions: in vivo.
A short description of data set [2]: Oral bioavailability in rat compound administered as solution in 20% (v/v) cremophor EL and 10% (v/v) ethanol in water. It is filed as ADME, organism-based. The settings on record: in vivo.
Data set [3] deals with Tyrosine-protein kinase BTK (Mus musculus, UniProt P35991).
Sequence of Tyrosine-protein kinase BTK (Mus musculus, UniProt P35991) (P35991 whole entry): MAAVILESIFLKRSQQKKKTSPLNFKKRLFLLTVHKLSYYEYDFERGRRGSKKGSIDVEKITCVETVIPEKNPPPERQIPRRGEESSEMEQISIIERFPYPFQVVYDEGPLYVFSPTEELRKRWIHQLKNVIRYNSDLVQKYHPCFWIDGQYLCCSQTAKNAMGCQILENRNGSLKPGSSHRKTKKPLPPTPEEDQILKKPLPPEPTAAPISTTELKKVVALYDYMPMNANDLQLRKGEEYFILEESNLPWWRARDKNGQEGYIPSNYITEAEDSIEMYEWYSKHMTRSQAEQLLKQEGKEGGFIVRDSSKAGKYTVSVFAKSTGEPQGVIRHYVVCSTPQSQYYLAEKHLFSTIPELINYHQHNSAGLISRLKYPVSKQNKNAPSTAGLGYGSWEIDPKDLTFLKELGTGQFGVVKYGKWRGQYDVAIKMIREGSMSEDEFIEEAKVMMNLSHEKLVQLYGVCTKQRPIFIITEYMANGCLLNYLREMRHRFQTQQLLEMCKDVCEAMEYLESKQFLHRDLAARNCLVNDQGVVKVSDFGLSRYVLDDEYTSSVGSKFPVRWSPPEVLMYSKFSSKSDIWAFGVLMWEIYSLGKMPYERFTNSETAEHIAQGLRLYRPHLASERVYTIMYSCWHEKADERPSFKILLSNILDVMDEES
The target in data set [4] is T1, Tyrosine-protein kinase BTK (Homo sapiens, UniProt Q06187). As to the kind of experiment: Inhibition of BTK (unknown origin) after 1 hr by FRET assay.
T1 sequence (Q06187 whole entry): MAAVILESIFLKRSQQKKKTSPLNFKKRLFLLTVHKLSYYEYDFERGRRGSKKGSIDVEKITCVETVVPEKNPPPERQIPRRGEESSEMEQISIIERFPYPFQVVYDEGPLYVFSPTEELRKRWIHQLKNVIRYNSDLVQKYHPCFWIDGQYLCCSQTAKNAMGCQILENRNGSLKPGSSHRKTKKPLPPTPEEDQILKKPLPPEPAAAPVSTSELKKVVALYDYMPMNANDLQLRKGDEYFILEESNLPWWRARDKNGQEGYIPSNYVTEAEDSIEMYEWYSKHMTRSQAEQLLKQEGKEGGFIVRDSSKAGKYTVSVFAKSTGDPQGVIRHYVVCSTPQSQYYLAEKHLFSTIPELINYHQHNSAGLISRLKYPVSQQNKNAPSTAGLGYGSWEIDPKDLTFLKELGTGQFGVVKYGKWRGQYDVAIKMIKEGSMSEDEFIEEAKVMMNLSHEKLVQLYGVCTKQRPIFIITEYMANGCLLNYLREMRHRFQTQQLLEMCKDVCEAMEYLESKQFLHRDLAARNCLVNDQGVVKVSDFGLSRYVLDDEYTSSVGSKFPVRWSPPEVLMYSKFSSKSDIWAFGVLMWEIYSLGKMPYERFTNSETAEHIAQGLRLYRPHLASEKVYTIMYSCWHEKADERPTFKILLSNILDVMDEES
Data set [5] has as its target T1, Tyrosine-protein kinase BTK.
The test system of data set [6] is Homo sapiens. As to the kind of experiment: Drug metabolism in healthy human plasma treated with GDC-0834 at 35 to 105 mg, po. It is filed as ADME, organism-based. The settings on record: in vivo.
Data set [7] deals with hERG (KCNH2) (Homo sapiens, UniProt Q12809). Nature of the data set: Inhibition of human ERG at 10 uM.
Sequence of hERG (KCNH2) (Q12809 whole entry): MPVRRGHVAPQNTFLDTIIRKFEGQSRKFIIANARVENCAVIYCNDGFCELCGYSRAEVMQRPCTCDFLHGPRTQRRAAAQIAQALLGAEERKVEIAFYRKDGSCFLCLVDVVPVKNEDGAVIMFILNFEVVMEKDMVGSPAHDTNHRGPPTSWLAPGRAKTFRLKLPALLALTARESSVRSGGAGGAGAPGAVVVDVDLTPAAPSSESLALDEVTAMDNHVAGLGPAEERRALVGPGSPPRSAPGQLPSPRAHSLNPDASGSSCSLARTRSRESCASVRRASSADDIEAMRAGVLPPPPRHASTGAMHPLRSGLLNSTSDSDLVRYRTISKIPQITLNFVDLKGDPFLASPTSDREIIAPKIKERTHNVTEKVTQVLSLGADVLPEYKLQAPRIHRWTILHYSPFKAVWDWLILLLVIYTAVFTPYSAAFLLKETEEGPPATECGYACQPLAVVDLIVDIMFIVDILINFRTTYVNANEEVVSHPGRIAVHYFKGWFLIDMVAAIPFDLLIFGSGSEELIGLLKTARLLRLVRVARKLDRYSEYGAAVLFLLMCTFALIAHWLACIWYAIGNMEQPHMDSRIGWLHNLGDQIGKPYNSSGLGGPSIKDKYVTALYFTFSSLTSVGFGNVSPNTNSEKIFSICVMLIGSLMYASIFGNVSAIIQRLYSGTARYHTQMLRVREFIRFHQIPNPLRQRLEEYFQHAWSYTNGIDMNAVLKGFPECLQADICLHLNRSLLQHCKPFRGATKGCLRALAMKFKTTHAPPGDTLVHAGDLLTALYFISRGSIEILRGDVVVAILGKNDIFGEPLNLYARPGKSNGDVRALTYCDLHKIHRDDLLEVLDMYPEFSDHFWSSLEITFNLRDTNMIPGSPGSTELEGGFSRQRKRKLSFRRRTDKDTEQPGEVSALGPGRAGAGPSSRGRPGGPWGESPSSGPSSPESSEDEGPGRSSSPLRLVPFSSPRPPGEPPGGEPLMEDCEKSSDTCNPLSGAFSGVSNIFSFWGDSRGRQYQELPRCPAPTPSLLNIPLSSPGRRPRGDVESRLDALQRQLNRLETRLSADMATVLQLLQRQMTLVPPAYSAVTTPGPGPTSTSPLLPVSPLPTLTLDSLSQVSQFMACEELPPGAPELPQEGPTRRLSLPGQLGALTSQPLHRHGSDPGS
Data set [8] relates to Salmonella typhimurium. Nature of the data set: Toxicity in Salmonella typhimurium TA98 in presence of S9 fraction. It is filed as organism-based. The settings on record: salmonella enterica subsp. enterica serovar typhimurium.
In data set [9] the test system is Salmonella typhimurium. As to the kind of experiment: Toxicity in Salmonella typhimurium TA98 in absence of S9 fraction. The format is organism-based. As to conditions: salmonella enterica subsp. enterica serovar typhimurium.
For data set [10], the system named is Salmonella typhimurium. As to the kind of experiment: Toxicity in Salmonella typhimurium TA100 in presence of S9 fraction. The format is organism-based. The settings on record: salmonella enterica subsp. enterica serovar typhimurium.
Data set [11] concerns Salmonella typhimurium. As to the kind of experiment: Toxicity in Salmonella typhimurium TA100 in absence of S9 fraction. As to conditions: salmonella enterica subsp. enterica serovar typhimurium. The format is organism-based.
Data set [12] is described as follows: Solubility of the compound in fasted-state simulated intestinal fluid at pH 6.8. It is filed as ADME.
Data set [13] can be described thus: Clearance in mouse. As to conditions: in vivo. The format is ADME, organism-based.
Data set [14] in a line: Clearance in dog. It is filed as ADME, organism-based, Canis lupus familiaris. The settings on record: in vivo.
Data set [15] is described as follows: Clearance in cynomolgus monkey. As to conditions: in vivo. The format is ADME, organism-based, Macaca fascicularis.
The nature of data set [16]: Oral bioavailability in mouse. It is filed as ADME, organism-based. As to conditions: in vivo.
A short description of data set [17]: Oral bioavailability in rat compound administered as suspension in crystalline freebase in 0.5% (w/v) methylcellulose and 0.2% (w/v) polysorbate 80 in water. The format is ADME, organism-based. The settings on record: in vivo.
Data set [18] in a line: Oral bioavailability in dog compound administered as solution in 60% polyethylene glycol 400 in water. The format is ADME, organism-based, Canis lupus familiaris. The settings on record: in vivo.
Data set [19] can be described thus: Oral bioavailability in dog compound administered as as suspension in crystalline freebase in 0.5% (w/v) methylcellulose and 0.2% (w/v) polysorbate 80 in water. As to conditions: in vivo. It is filed as ADME, organism-based, Canis lupus familiaris.
A short description of data set [20]: Oral bioavailability in cynomolgus monkey. The format is ADME, organism-based, Macaca fascicularis. As to conditions: in vivo.
Data set [21] concerns Homo sapiens. Nature of the data set: Drug metabolism in healthy human plasma assessed as formation of M1 metabolite at 35 to 105 mg, po. The format is ADME, organism-based. The settings on record: in vivo.

As to `Cc1c(NC(=O)c2cc3c(s2)CCCC3)cccc1-c1cn(C)c(=O)c(Nc2ccncn2)n1`, the clearance in data set [1] turned out to be 5.4 mL/min/kg. Also, the bioavailability in [2] stood at 37%.
The compound `Cc1c(NC(=O)c2cc3c(s2)CCCC3)cccc1-c1cn(C)c(=O)c(Nc2ccc(C3CCN(C)CC3)cc2)n1` gave a clearance in data set [1] of 111 mL/min/kg. Besides, in data set [2], the bioavailability was below 5%. Half-maximal inhibition in [3] (IC50) required 60 nM.
Regarding `Cc1ccc(C(=O)Nc2cccc(-c3cn(C)c(=O)c(Nc4ccc(C(=O)N5CCOCC5)cc4)n3)c2C)cc1`, the IC50 in data set [4] was 860 nM.
In turn, `Cc1c(NC(=O)c2cc3c(s2)CCCC3)cccc1-c1cn(C)c(=O)c(Nc2ccc(N3CC[C@@H](N(C)C)C3)cc2)n1` yielded a half-maximal inhibitory concentration (IC50) in data set [3] of 800 nM.
For the compound `Cc1c(NC(=O)c2ccc(C(C)(C)C)cc2)cccc1-c1cn(C)c(=O)c(Nc2ccc(C(=O)N3CCOCC3)cc2)n1`, the IC50 in [3] was 150 nM.
Regarding `Cc1c(NC(=O)c2cc3c(s2)CCCC3)cccc1-c1cn(C)c(=O)c(Nc2ccc3[nH]ccc3c2)n1`, the IC50 in data set [3] worked out at 1100 nM.
For the compound `Cc1c(NC(=O)c2cc3c(s2)CCCC3)cccc1-c1cn(C)c(=O)c(Nc2ccc(C(=O)N3CCOCC3)cc2)n1`, the clearance in [1] turned out to be 6 mL/min/kg. The compound also displayed a bioavailability in data set [2] of 29%. In data set [3], this compound showed an IC50 of 230 nM.
Consider `Cc1c(NC(=O)c2ccc([Si](C)(C)C)cc2)cccc1-c1cn(C)c(=O)c(Nc2ccc(C(=O)N3CCOCC3)cc2)n1`, for which the half-maximal inhibitory concentration (IC50) in data set [5] came out at 90 nM; in data set [3], 1100 nM.
`Cc1c(NC(=O)c2ccc(C(C)(C)C)nc2)cccc1-c1cn(C)c(=O)c(Nc2ccc(C(=O)N3CCOCC3)cc2)n1`: the IC50 in [5] came out at 130 nM; in data set [3], 3500 nM.
`Cc1c(NC(=O)c2cc3c(s2)CCCC3)cccc1-c1cn(C)c(=O)c(Nc2ccc([C@H]3C(=O)N(C)CCN3C)cc2)n1`: the clearance in [1] came out at 11 mL/min/kg. Besides, the bioavailability in [2] was found to be 41%.
For `Cc1c(NC(=O)c2cnc(C(C)(C)C)nc2)cccc1-c1cn(C)c(=O)c(Nc2ccc(C(=O)N3CCOCC3)cc2)n1`, the IC50 in [5] was found to be 270 nM; in [3] it was 3700 nM.
For the compound `Cc1c(N)cccc1-c1cn(C)c(=O)c(Nc2ccc([C@@H]3C(=O)N(C)CCN3C)cc2)n1`, the Drug metabolism entry in [6] is “metabolite_detected”.
On to `Cc1c(NC(=O)c2ccc(C3(C)CC3)cc2)cccc1-c1cn(C)c(=O)c(Nc2ccc(C(=O)N3CCOCC3)cc2)n1`, for which the IC50 in data set [5] came to 30 nM; in data set [3] it was 580 nM.
For the compound `Cc1c(NC(=O)c2cc3c(s2)CCCC3)cccc1-c1cn(C)c(=O)c(Nc2ccc([C@@H]3C(=O)N(C)CCN3C)cc2)n1`, the clearance was 4.4 mL/min/kg in data set [1], 43 mL/min/kg in data set [13], 14 mL/min/kg in data set [14] and 33 mL/min/kg in [15]. The bioavailability amounted to 35% in data set [2]; 18% in [16]; 16% in data set [17]; 35% in [18]; 32% in data set [19]; 16% in data set [20]. The compound further returned an inhibition at 10 µM in data set [7] of 27%. The Activity entry in [8], in data set [9], in data set [10] and in data set [11] was “Non-toxic” throughout. In addition, the solubility in [12] is 7 µg/mL (≈ 11.7 µM). Besides, the Drug metabolism result in data set [21] is “metabolite_detected”.
Take `Cc1c(NC(=O)c2ccc(C(C)(C)C)s2)cccc1-c1cn(C)c(=O)c(Nc2ccc(C(=O)N3CCOCC3)cc2)n1`: it took 490 nM to reach half-maximal inhibition in data set [3] (IC50).
Compound `Cc1c(NC(=O)c2ncc(C(C)(C)C)cn2)cccc1-c1cn(C)c(=O)c(Nc2ccc(C(=O)N3CCOCC3)cc2)n1` came in with an IC50 in [5] of 50 nM.
As to `CCc1ccc(C(=O)Nc2cccc(-c3cn(C)c(=O)c(Nc4ccc(C(=O)N5CCOCC5)cc4)n3)c2C)cc1`, in data set [4], half-maximal inhibition (IC50) was put at 225 nM.
Regarding `Cc1c(NC(=O)c2cc3c(s2)CCCC3)cccc1-c1cn(C)c(=O)c(Nc2ccc(-c3ncc[nH]3)cc2)n1`, in [3], inhibition was half-maximal at 23900 nM (IC50).
In turn, `Cc1c(NC(=O)c2ccccc2)cccc1-c1cn(C)c(=O)c(Nc2ccc(C(=O)N3CCOCC3)cc2)n1` returned an IC50 in [4] of 4600 nM.
Turning to `Cc1c(NC(=O)c2cc3c(s2)CCCC3)cccc1-c1cn(C)c(=O)c(Nc2cccnc2)n1`, the clearance in data set [1] was 9.2 mL/min/kg. The same compound returned a bioavailability in [2] of 53%. Moreover, in data set [3], the midpoint of inhibition, the IC50, lay at 5000 nM.
Consider `CCC(C)(C)c1ccc(C(=O)Nc2cccc(-c3cn(C)c(=O)c(Nc4ccc(C(=O)N5CCOCC5)cc4)n3)c2C)cc1`, for which the IC50 in data set [5] is 40 nM; in data set [3] it was 80 nM.
In [3], `Cc1c(NC(=O)c2cc3c(s2)CCCC3)cccc1-c1cn(C)c(=O)c(Nc2ccn3ccnc3c2)n1` yielded an IC50 of 1300 nM.
In data set [3], `Cc1c(NC(=O)c2cc3c(s2)CCOC3)cccc1-c1cn(C)c(=O)c(Nc2ccc(C(=O)N3CCOCC3)cc2)n1` displayed an IC50 of 1300 nM.
For `Cc1c(NC(=O)c2ccc(C(C)(C)O)cc2)cccc1-c1cn(C)c(=O)c(Nc2ccc(C(=O)N3CCOCC3)cc2)n1`, the IC50 in data set [5] amounted to 150 nM; in [3], 2800 nM.
With `Cc1c(NC(=O)c2ccc(N(C)C)cc2)cccc1-c1cn(C)c(=O)c(Nc2ccc(C(=O)N3CCOCC3)cc2)n1`, the IC50 in data set [5] came to 230 nM; in data set [3], 410 nM.
For `Cc1c(NC(=O)c2cnc(C(C)(C)C)cn2)cccc1-c1cn(C)c(=O)c(Nc2ccc(C(=O)N3CCOCC3)cc2)n1`, the half-inhibitory concentration (IC50) in data set [5] was 70 nM; in [3], 890 nM.
